Measured values taken from publication PMC10460389, “Design of 8-mer peptides that block Clostridioides difficile toxin A in intestinal cells” (Communications Biology, 2023).

Assays:
[1] = test system: small intestinal (jejunum) cells exposed to TcdA; conditions: cited from earlier work
TcdA GTD catalytic site = conditions: cited from earlier work
TcdA GTD = conditions: 0.5 μM UDP-Glucose-Fluorescein 15 min; vs no-TcdA-AF594 no-UDP-Glucose-Fluorescein control RP(-T -U) for SA1; two-tailed T-test
Protocol: For the bead-based assay, statistical analyses were performed using a two-tailed T-test in conjunction with the RP (-T) control. Significance was determined at p < 0.05. […] Approximately 40 beads were imaged for each sample, with images containing out-of-focus beads or bead aggregates being excluded. […] Each SPR sensor was used to run two samples across two separate channels, leading to a total of 14 measurements. However, one measurement was excluded due to the loss of a stable signal.

C. diff. infection = conditions: antibiotic treatment (metronidazole and vancomycin); cited from earlier work
Source text: Multiple therapeutic approaches have been developed to treat C. diff. infection. The standard practice is treatment with antibiotics (metronidazole and vancomycin), but in 20% of cases infection reoccurs. Exposure to these antibiotics alters the microbial community in the gut, facilitating colonization by C. diff[21].

Molecule: DGWIQHYKHR [NPC, computationally designed 10-mer peptide from previous work]
- neutralization of TcdA in jejunum / small intestinal cells [1]: neutralized toxin A in jejunum cells
- ΔGbinding (TcdA GTD catalytic site): -6.15

Molecule: HEWGRRHN [SA7]
- change in green fluorescence from center to halo (TcdA binding) region (TcdA GTD): All peptides except SA7 showed a significant (p < 0.005) decrease in green fluorescence

Molecule: GMFWQHRRHD [NPB, computationally designed 10-mer peptide from previous work]
- neutralization of TcdA in jejunum / small intestinal cells [1]: neutralized toxin A in jejunum cells
- ΔGbinding (TcdA GTD catalytic site): -11.35

Molecule: Cc1ncc([N+](=O)[O-])n1CCO [metronidazole]
- cases in which infection reoccurs (C. diff. infection): 20%

Molecule: CN[C@H](CC(C)C)C(=O)N[C@H]1C(=O)N[C@@H](CC(N)=O)C(=O)N[C@H]2C(=O)N[C@H]3C(=O)N[C@H](C(=O)N[C@H](C(=O)O)c4cc(O)cc(O)c4-c4cc3ccc4O)[C@H](O)c3ccc(c(Cl)c3)Oc3cc2cc(c3O[C@@H]2O[C@H](CO)[C@@H](O)[C@H](O)[C@H]2O[C@H]2C[C@](C)(N)[C@H](O)[C@H](C)O2)Oc2ccc(cc2Cl)[C@H]1O [vancomycin]
- cases in which infection reoccurs (C. diff. infection): 20%
